Data published in PMC5291098, “Molecular mutagenesis of ppGpp: turning a RelA activator into an inhibitor” (Scientific Reports, 2017).
Read-outs that look alike come from different tables or passages of the source.

Biological target: T1, E. coli RelA (Escherichia coli, UniProt P0AG20)
T1 construct: made in house
Assay: Inhibition of [3H]GDP to [3H]ppGpp conversion by E. coli RelA activated by vacant 70S ribosomes and 100 μM ppGpp
Type: biochemical
Details: for IC50: 30 nM RelA, 0.5 μM vacant 70S, 100 μM ppGpp; for nHill (Hill coefficient of the titration fit): Supplementary Table 1, 4-parameter logistic model; for Activation of RelA's synthetic activity (in words): ppGpp up to 100 μM, ppApp 50 µM-1 mM, thio-ppGpp 100 µM (Supplementary Figure 1); for Activity against RelA (in words) / Inhibitory effect on RelA (in words): RelA:70S:ppGpp system; for Inhibitory effect on RelA (in words): concentrations up to 1 mM
Procedure: For the initial characterization of compounds, we followed the inhibition of [^3H] GDP conversion to [^3H] ppGpp catalyzed by E. coli RelA in a simplified system in which RelA’s activity was induced by vacant 70S ribosomes and 100 μM of ppGpp[15]. Unlabeled ppGpp was added to reaction mixtures in order to linearize the kinetics of [^3H] ppGpp synthesis due to an activating effect on the RelA enzyme. We used a targeted library of 69 nucleotides belonging to several structural classes: ‘true’ ppGpp analogues; Relacin and its derivatives; pyrrolidine, azetidine, piperidine and acyclic phosphonates. Chemical structures of tested compounds and titrations in the RelA:70S:ppGpp system are presented in Supplementary Table 1.
Detailed description of experimental procedures can be found in Supplementary Text. Biochemical assays utilize in vitro translation[58] and stringent response[15] systems from E. coli purified components. Experiments were performed in HEPES:Polymix[58] buffer with either 5 (for enzymatically assembled initiation complexes) or 15 mM (for vacant 70 S, as well as non-enzymatically assembled programmed ribosomes) Mg^2+. Expression and purification of E. faecalis RelQ was performed as per Gaca (2015) and colleagues. GTPase and ppGpp synthesis were followed using TLC separation and radiochemical detection of ^3H-labelled nucleotides. Multiple round in vitro transcription assays were performed as per Bernardo et al.[49] with minor modifications. Inhibition efficiency (IC50) was calculated using 4-parameter logistic model (Hill equation) as per Sebaugh[60].
Thin layer chromatography (TLC) analysis of nucleotide mixtures
Both EF-G GTPase reaction and ppGpp synthesis by RelA were followed by TLC analysis followed by scintillation counting according to Mechold and colleagues, with modifications1. Time points from the reaction mixtures (5 μl, see below for details) were quenched by addition 4 μl 70% formic acid supplemented with a cold nucleotide standard used for UV-shadowing (10 mM GDP and 10 mM GTP) and spotted on PEI-TLC plates (Macherey-Nagel). TLC was run in buffer, plates dried, cut into sections guided by UV-shadowing and 3H radioactivity was quantified by scintillation counting in Optisafe-3 (Fisher) scintillation cocktail on Perkin Elmer Tricarb 2810TR counter. Conversion of substrate to product was quantified as described in Shyp et al. (2012)2.
Enzymatic assays with E. coli RelA
Screening: all experiments were performed in HEPES:Polymix, Mg2+ of 5 mM, 37 […]
μM ppGpp was pre-incubated at 37° C for 2 min and then reaction started by addition of 1 mM ATP, time points (5 μl) taken, quenched with formic acid and analyzed by TLC. Inhibition efficiency (IC50) was calculated using 4-parameter logistic model (Hill equation) as per Sebaugh (2011)3. […]

[1] = 0.3 mM [3H]GDP, 1 mM ATP, read-out: IC50
[2] = 5 mM Mg2+, 37 °C, no unit beside the value, titration axis in mM, read-out: IC50 (Supplementary Table 1, example titration)

T1 sequence (P0AG20 whole entry): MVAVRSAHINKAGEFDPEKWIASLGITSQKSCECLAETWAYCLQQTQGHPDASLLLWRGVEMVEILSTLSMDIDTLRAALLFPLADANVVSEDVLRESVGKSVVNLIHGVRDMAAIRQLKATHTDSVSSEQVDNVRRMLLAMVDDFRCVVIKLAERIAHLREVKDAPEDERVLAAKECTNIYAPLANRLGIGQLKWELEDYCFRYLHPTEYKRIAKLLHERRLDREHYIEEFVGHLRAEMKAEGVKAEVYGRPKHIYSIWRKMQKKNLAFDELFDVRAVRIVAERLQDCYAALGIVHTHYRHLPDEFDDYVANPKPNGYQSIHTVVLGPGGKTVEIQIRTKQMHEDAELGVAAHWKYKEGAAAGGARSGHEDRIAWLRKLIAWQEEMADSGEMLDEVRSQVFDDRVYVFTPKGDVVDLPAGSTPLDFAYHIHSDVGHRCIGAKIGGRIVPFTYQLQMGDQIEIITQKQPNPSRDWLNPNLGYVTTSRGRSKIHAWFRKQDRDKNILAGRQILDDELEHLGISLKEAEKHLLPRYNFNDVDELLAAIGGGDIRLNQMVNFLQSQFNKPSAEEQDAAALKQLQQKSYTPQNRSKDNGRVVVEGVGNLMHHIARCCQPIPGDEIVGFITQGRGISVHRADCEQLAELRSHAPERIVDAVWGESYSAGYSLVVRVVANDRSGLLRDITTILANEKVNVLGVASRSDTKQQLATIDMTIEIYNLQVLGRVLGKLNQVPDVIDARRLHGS

Row | SMILES | IC50 [1] [µM] | nHill (Hill coefficient of the titration fit) | also measured
1 | Nc1nc2c(ncn2C2OC(COP(=O)(O)OP(=O)(O)O)C(OP(=O)(O)OP(=O)(O)O)C2O)c(=S)[nH]1 (stereo not drawn) [6-thio-ppGpp, reference compound] | 21.3 ± 2.1 | 1.86 ± 0.29 | IC50 (5 mM Mg2+, 37 °C, no unit beside the value, titration axis in µM, read-out: IC50 (Supplementary Table 1, example titration)): 21.2 ± 2.08 µM; Activation of RelA's synthetic activity (in words): neither ppApp nor 6-thio-ppGpp activate; Activation of RelA's synthetic activity (in words) (listed as thio-ppGpp): do not activate
2 | CC(C)C(=O)Nc1nc2c(ncn2[C@@H]2O[C@H](COP(=O)(O)OCP(=O)(O)O)[C@@H](OP(=O)(O)OCP(=O)(O)O)[C@H]2OC2CCCCO2)c(=O)[nH]1 (stereo partly drawn) [DR-4238, 2-N-isobutyryl-2’-tetrahydropyranylguanosine 3’,5’-di(phosphonomethoxyphosphate)] | – | 1.85 ± 0.2 | IC50 [2]: 100 ± 6 µM
3 | CC(C)C(=O)Nc1nc2c(ncn2C2OC(COP(=O)(O)OCP(=O)(O)O)C(OP(=O)(O)OCP(=O)(O)O)C2O)c(=O)[nH]1 (stereo not drawn) [DR-4239, 2-N-isobutyryl-guanosine 3’,5’-di(phosphonomethoxyphosphate)] | 101 ± 8 | 2.13 ± 0.3 | IC50 [2]: 102 ± 8 µM
4 | CC(C)OP(=O)(O)CN1CC[C@H](n2cnc3c(=O)[nH]c(N)nc32)C1 [DR-4518] | 1710 ± 660 | – | –
5 | Nc1nc2c(ncn2[C@H]2CCN(C(=O)P(=O)(O)O)C2)c(=O)[nH]1 [DR-4520] | 200 ± 22 | 1.46 ± 0.2 | –
6 | Nc1nc2c(ncn2CCNCC(=O)P(=O)(O)O)c(=O)[nH]1 [DR-5164] | 1400 ± 120 | – | –
7 | Nc1nc2c(ncn2[C@@H]2CCN(C(=O)P(=O)(O)O)C2)c(=O)[nH]1 [DR-5267B] | 652 ± 194 | 0.95 ± 0.26 | –
8 | Nc1nc2c(ncn2C2CC(OC(=O)NCC(=O)NCC(=O)O)C(COC(=O)NCC(=O)NCC(=O)O)O2)c(=S)[nH]1 (stereo not drawn) [DR-5732] | – | – | Activity against RelA (in words): virtually no activity; Activity against RelA (in words) (listed as thio-di-iBu-Relacin): complete inactivation
9 | Nc1nc2c(ncn2C2CC(OCP(=O)(O)O)C(COCP(=O)(O)O)O2)c(=O)[nH]1 (stereo not drawn) [DR-5799C] | 515 ± 392 | 2.2 ± 2.5 | –
10 | Nc1ncnc2c1ncn2C1CCN(C(=O)P(=O)(O)O)CC1 [DR-5994A] | – | 1 ± 0.088 | IC50 [2]: 300 ± 30 µM
11 | Nc1nc2c(ncn2C2OC(COCP(=O)(O)O)C(OCP(=O)(O)O)C2O)c(=O)[nH]1 (stereo not drawn) [DR-6331] | 76 ± 6 | 1.5 ± 0.2 | –
12 | Nc1nc2c(ncn2C2CCN(C(=O)CP(=O)(O)O)CC2)c(=O)[nH]1 [DR-M011] | 234 ± 67 | 0.62 ± 0.13 | IC50 [2]: 230 ± 70 µM
13 | NC(=O)C1=CN([C@@H]2O[C@H](COP(=O)(O)OP(=O)(O)OC[C@H]3O[C@@H](n4cnc5c(N)ncnc54)[C@H](O)[C@@H]3O)[C@@H](O)[C@H]2O)C=CC1 [NADH, reference compound] | – | – | Inhibitory effect on RelA (in words): None of the compounds showed any inhibitory effect
14 | NC(=O)C1=CN([C@@H]2O[C@H](COP(=O)(O)OP(=O)(O)OC[C@H]3O[C@@H](n4cnc5c(N)ncnc54)[C@H](OP(=O)(O)O)[C@@H]3O)[C@@H](O)[C@H]2O)C=CC1 [NADPH, reference compound] | – | – | Inhibitory effect on RelA (in words): None of the compounds showed any inhibitory effect
15 | Nc1ncnc2c1ncn2[C@@H]1O[C@@H]2COP(=O)(O)O[C@H]3[C@@H](O)[C@H](n4cnc5c(N)ncnc54)O[C@@H]3COP(=O)(O)O[C@H]2[C@H]1O [c-di-AMP, reference compound] | – | – | Inhibitory effect on RelA (in words): None of the compounds showed any inhibitory effect
